Data on one compound can be found in ChEMBL document CHEMBL1130546, “Oligopresentation of protease inhibitors with -cyclodextrin as template” (Bioorg Med Chem Lett, 1997).

By Ki is commonly meant the dissociation constant of the complex between target and ligand, obtained from inhibition or displacement. Read a low Ki as a stronger hold on the target.

Where a SMILES comes first, the peptide text is derived from it. [ ]: non-standard residue; d: D form. Nle = CCCC[C@H](N)C(=O)O

One assay addresses Cathepsin B (Homo sapiens, UniProt P07858). Briefly: Equilibrium dissociation constant for the inhibition of human cathepsin B was determined.
Assay [1] concerns the target T1, Calpain-1 catalytic subunit (Homo sapiens, UniProt P07384).
T1 sequence (P07384 whole entry): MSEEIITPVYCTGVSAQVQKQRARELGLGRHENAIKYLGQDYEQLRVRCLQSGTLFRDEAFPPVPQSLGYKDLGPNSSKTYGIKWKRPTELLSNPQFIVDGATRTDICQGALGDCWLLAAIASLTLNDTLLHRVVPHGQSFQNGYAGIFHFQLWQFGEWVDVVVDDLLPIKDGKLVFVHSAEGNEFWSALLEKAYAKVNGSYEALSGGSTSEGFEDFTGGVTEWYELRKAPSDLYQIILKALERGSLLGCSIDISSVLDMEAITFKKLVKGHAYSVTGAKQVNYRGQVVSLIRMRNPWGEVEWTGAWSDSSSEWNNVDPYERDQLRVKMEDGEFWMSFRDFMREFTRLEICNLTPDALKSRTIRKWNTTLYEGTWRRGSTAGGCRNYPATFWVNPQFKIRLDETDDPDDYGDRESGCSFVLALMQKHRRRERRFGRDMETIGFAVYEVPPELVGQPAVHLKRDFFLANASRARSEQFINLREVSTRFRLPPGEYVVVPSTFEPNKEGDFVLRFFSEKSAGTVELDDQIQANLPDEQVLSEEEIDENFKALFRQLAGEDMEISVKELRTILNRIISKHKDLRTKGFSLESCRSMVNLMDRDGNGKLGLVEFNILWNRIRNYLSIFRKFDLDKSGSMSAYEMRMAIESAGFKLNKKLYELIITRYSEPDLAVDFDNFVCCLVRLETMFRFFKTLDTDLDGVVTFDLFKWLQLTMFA
Briefly: Equilibrium dissociation constant for the inhibition of human Mu-calpain was determined.

`CCCC[C@H](NC(=O)[C@H](CC(C)C)NC(=O)[C@H](CC(C)C)NC(C)=O)C(=O)O` (Ac-Leu-Leu-[Nle]-OH): the figures for the inhibition constant Ki (at Cathepsin B; in assay [1]) were 1 nM and 3.4 nM, respectively.
